Here are results for three compounds from patent US20100003208A1, “Skin Care Products, As Well As Foods and Beverages Containing 6-O-PUFA Ascorbic Esters” (Suntory Holdings Limited, priority 2004, published 2010).

The target of one series is aldose reductase (Homo sapiens, UniProt P15121). The settings on record: cited from earlier work.
Series [1] concerns streptozotocin-induced diabetic model. The following applies: in vivo; cited from earlier work.
A further series relates to human skin strips. In words: Permeability of ascorbic acid to the tissue of human skin strips (modified Bronov diffusion cell). The class given is in vitro ADME. The following applies: 100 mM (3.38% w/w; PBS(−)) on keratinized layer, re-dosed at 4 and 17 h, 24 hours; compared with unmodified vitamin C; FIG. 3. The protocol: A human skin section extracted from the right abdominal part of a volunteer with an informed consent was vertically split into small strips, which were set in a modified Bronov diffusion cell chamber. With the underside of the skin immersed in DMEM (2 mL) to supply nutrients, the keratinized layer was aerated with 5% CO2 to maintain the pH of the medium at 7.25. […] The total quantity of vitamin C (the sum of reduced and oxidized forms of vitamin C) and the quantity of reduced form of vitamin C in the epidermis and the dermis were measured; the total quantity of vitamin C was measured in the presence of 16 mM dithiothreitol as a reducing agent, whereas the quantity of reduced form of vitamin C was measured without adding any such reducing agent. The measured values were used to calculate the proportion of total vitamin C as occupied by reduced form of vitamin C. Similarly, 6-O-arachidonoyl ascorbate and 6-O-docosahexaenoyl ascorbate, as well as ascorbic acid (comparison) were evaluated and the results are also shown in FIG. 3.

The subject of series [2] is human skin keratocytes HaCaT. Briefly: Protective effect on apoptosis of HaCaT keratocytes under UVA irradiation (WST-1 viability). Type of series: cell-based. The following applies: 200 μM added 2 hours before 32-48 mJ/cm^2 UVA; WST-1 24 hours after irradiation; FIG. 2. The protocol: Human skin keratocytes HaCaT (the cell line granted by courtesy of Dr. Fusenig at University of Heidelberg) were inoculated on a 24-well plate at a density of 10,000 cells/well in a 10% fetal bovine serum (FBS) containing Dulbecco modified Eagle medium (DMEM); 18 hours later, the medium was irradiated with 32-48 mJ/cm^2 of UVA. Two hours before the irradiation, 100-200 μM of 6-O-dihomo-γ-linolenoyl ascorbate had been added to the medium but it was removed just before the irradiation and the medium was rinsed. UVA irradiation was performed in PBS but in the absence of the drug; after the irradiation, culture was continued in the 10% FBS containing DMEM and 24 hours after the irradiation, the cell viability was evaluated by a mitochondrial dehydrogenase activity assay method using 2-(4-iodophenyl)-3-(4-nitrophenyl)-5-(2,4-disulfophenyl)-2H-tetrazolium monosodium salt (WST-1).

On to `CCCCC/C=C\C/C=C\C/C=C\CCCCC(=O)OC[C@H](O)[C@H]1OC(=O)C(O)=C1O` [6-O-γ-linolenoyl ascorbate], for which the “aldose reductase inhibitory action” value at aldose reductase is on record as “aldose reductase inhibitory action”. Further, the “efficacy in streptozotocin-induced diabetic model” value in series [1] is “effective”.
As to `CCCCC/C=C\C/C=C\C/C=C\C/C=C\CCCC(=O)OC[C@H](O)[C@H]1OC(=O)C(O)=C1O` [6-O-arachidonoyl ascorbate], the “amount of vitamin C in the dermis” value with human skin strips is recorded as “increased markedly”.
Consider `CCCCC/C=C\C/C=C\C/C=C\CCCCCCC(=O)OC[C@H](O)[C@H]1OC(=O)C(O)=C1O` [6-O-dihomo-γ-linolenoyl ascorbate], for which the “viability of human skin keratocytes” value in series [2] is “improved the viability”. The “amount of vitamin C in the dermis” value in the series on human skin strips was “increased markedly”.
